Laboratory results taken from paper PMC7870626, “Neurotoxicity and underlying cellular changes of 21 mitochondrial respiratory chain inhibitors” (Archives of Toxicology, 2021).

Legend:
LUHMES cells = experiment: NeuroGlycoTest (metabolic glycoengineering, KE3 assay); assay type: cell-based, human; details: d6 LUHMES, 6 h
Method: The NeuroGlycoTest was performed as previously described (Kranaster et al. [2020]). In brief, d6 LUHMES cells were co-treated for 6 h with the respiratory chain inhibitors together with 10 µM azide-tagged mannosamine precursor sugar (Ac4ManNAz), synthesized according to published procedures (Saxon et al. [2002]). After PBS-washing, a dibenzylcyclooctyne-PEG4-biotin (DBCO-biotin) [100 μM] (Jena Bioscience, Jena, Germany) solution was added for 20 min at 37 °C to label the incorporated azide-tagged sialic acids (= SiaAz).
For detection of MGE-sialoproteins, cells in 6-well plates were lyzed in Laemmli buffer and boiled for 5 min at 95 °C. […] Relative band intensity was quantified using a self-developed image evaluation software. […] At least two blots from independent experiments were quantified.
For detection of neurite MGE, cells in 8-well µ-slides were further incubated with a mixture of streptavidin-Alexa Fluor 488 [8 μg/ml] […] The processed images were analyzed using the SUIKER software (Karreman et al. [2019]) that simultaneously, from the same image, detected and quantified viability (based on the Hoechst staining), neurite area (based on the Calcein staining) and neurite MGE sialic acids (based on the streptavidin-Alexa Fluor 488 label). […]

cIII = target: T1, cIII (Homo sapiens, UniProt P00156); experiment: Respiratory chain complex activity in permeabilized LUHMES cells: cIII; assay type: cell-based
T1 construct: endogenous in cells; host or cells: LUHMES cells, digitonin-permeabilized
Method: To investigate individual respiratory chain complexes, a method developed earlier and described extensively was used (Delp et al. [2019]). In brief, LUHMES cells were seeded at a density of 205,000 cells/cm^2 in PM into Agilent Seahorse XFe24-well plates. […] To reduce data variability, internal normalization of the OCR of each well was done relative to its value after equilibration.

HepG2 cells = tested on: HepG2 cells; design: method as in van der Stel et al. 2020; details: ref van der Stel et al. 2020; cited from earlier work
cI = tested on: cI; design: method as in van der Stel et al. 2020; details: liver and kidney cells ref van der Stel et al. 2020; read-out: IC50 for inhibition of cI; cited from earlier work
cII = tested on: cII; design: method as in van der Stel et al. 2020; details: read-out: Concentration at which 50% inhibition was observed; HepG2 cells ref van der Stel et al. 2020; cited from earlier work

With `CCCCCC[C@H]1C(=O)O[C@H](C)[C@H](NC(=O)c2cccc(NC=O)c2O)C(=O)O[C@@H](C)[C@@H]1OC(=O)CC(C)C` [Antimycin A] the “Reduction of neurite area in the NeuroGlycoTest” value (LUHMES cells; highest non-cytotoxic concentration) was “more than 25%” and the “Neurite MGE signal / proteostasis disturbance (in words)” value (LUHMES cells; highest non-cytotoxic concentration (antimycin A 50 µM)) was “strong decrease”.
For `Cc1ccc(-c2c(Cl)nc(C#N)n2S(=O)(=O)N(C)C)cc1` [Cyazofamid], the “Inhibition of cIII activity (in words)” value (cIII; cIII electron donor) is listed as “not active at all”, the Uncoupling action (cIII; neuronal mitochondria, 50 µM) is listed as “uncoupling action” and the “Mode of action found in HepG2 cells” value (HepG2 cells) is listed as “uncoupler”.
For `COc1cc(CNC(=O)CCCC/C=C/C(C)C)ccc1O` [Capsaicin], the IC50 (cI) is listed as greater than 200 µM.
In the case of `Cc1ccccc1C(=O)Nc1cccc(OC(C)C)c1` [Mepronil], the IC50 (cII) is listed as greater than 100 µM.
